Source: US11691962B2 (eXIthera Pharmaceuticals, Inc., priority 2018, dated 2023)

Key:
beagle dog hepatocytes = assay: Metabolic stability in dog hepatocytes; type: in vitro ADME; conditions: 2 μM compound
Summary of the method: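 Pooled cryopreserved beagle hepatocytes at 500,000 cells/mL in Krebs-Henseleit buffer with 2 μM compound, 37 °C, 5% CO2, sampled out to 180 min. Acetonitrile-quenched samples analysed by LC-MS/MS; percent remaining from peak area versus time zero.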

Caco-2 cells = assay: Caco-2 cell permeability assay; type: in vitro ADME, human; conditions: Papp, 10 μM, 37° C.
Summary of the method: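 Caco-2 monolayers (days 21-25 post-seeding) received 10 μM compound in HBSS-MES pH 6.5 or HBSS-HEPES pH 7.4 (1% DMSO) at 37 °C, for 60 min A-B or 40 min B-A. Donor and receiver samples were quantified by HPLC-MS/MS (SRM), and Papp and recovery were calculated.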

human plasma protein = assay: Plasma protein binding by equilibrium dialysis; type: in vitro ADME; conditions: pooled human plasma, 10 μM, 4 hours at 37° C.
Summary of the method: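 Pooled mixed-gender human plasma spiked with compound at 10 μM was dialysed against PBS pH 7.4 for 4 h at 37°C. Both compartments were quantified by HPLC-MS/MS, and % bound was calculated from plasma vs buffer peak areas.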

For “(2S,3R)-3-((2-amino-6-methylpyridin-4-yl)methyl)-N2-(1-methyl-1H-imidazol-2-yl)-N1-((R)-1-(3-fluorophenyl)propyl)-N2-methyl-4-oxoazetidine-1,2-dicarboxamide [Compound 1-120]”, the “Dog Hepatocyte Stability (t1/2)” value (beagle dog hepatocytes) was “N (“N” indicates > 240 min)”, the “Caco-2 Permeability (A-B)” value (Caco-2 cells; apical to basolateral, 60 min) was “P (“P” indicates < 10 × 10^−6 cm/s)” and the “Caco-2 Permeability (B-A)” value (Caco-2 cells; basolateral to apical, 40 min) was “Q (“Q” indicates 11-30 × 10^−6 cm/s)”. For the same substance, the “PPB (%)” value (human plasma protein) was “Z (“Z” indicates 50-90%)”.
